From patent US12215126B2, “Cationic steroidal antimicrobial compounds with endogenous groups” (Brigham Young University, priority 2020, dated 2025)
Values after ≈ are worked out from the molar mass of the structure shown. Where two headings read alike, the source gives them in different places.

Legend:
Assay in all cases: Antimicrobial activity, minimum inhibitory concentration (MIC)
Type in all cases: cell-based
Candida albicans 90028 = system: Candida albicans 90028
Description: (§1) The antimicrobial activity of CSA-148 was determined in comparison to CSA-44, a CSA compound known to have very high antimicrobial activity compared to other CSAs. The microbes used in the comparative test was were Candida albicans 90028, methicillin resistant Staphylococcus aureus (MRSA) BAA-41, and Pseudomonas aeruginosa (PA01 47085).
The measured MICs for C. albicans 90028 were based on 100% inhibition of growth (i.e. no cloudiness). Judging by 50% inhibition, which is more difficult but is typical for fungal MICs, the MIC for CSA-44 relative to C. albicans can be extrapolated to 4 μg/ml, and the MIC for CSA-148 relative to C. albicans can be extrapolated to 2 μg/ml.

[1] = system: Pseudomonas aeruginosa (PA01 47085)
Description: as §1

[2] = system: methicillin resistant Staphylococcus aureus (MRSA) BAA-41
Description: as §1

MIC (Candida albicans 90028; C. albicans 90028, based on 100% inhibition of growth (no cloudiness)) [µg/mL]	MIC (Candida albicans 90028; C. albicans, judging by 50% inhibition, extrapolated) [µg/mL]	MIC [1] [µg/mL]	MIC [2] [µg/mL]	SMILES	MIC (Candida albicans 90028; Candida albicans, 90028, C. albicans 90028, based on 100% inhibition of growth (no cloudiness), read-out: MIC) [µg/mL]	MIC (Candida albicans 90028; Candida albicans, 90028, C. albicans, judging by 50% inhibition, extrapolated, read-out: MIC) [µg/mL]	MIC ([1]; Pseudomonas aeruginosa, read-out: MIC) [µg/mL]	MIC ([2]; Staphylococcus aureus, read-out: MIC) [µg/mL]
8 (≈ 10.9 µM)	4 (≈ 5.45 µM)	2 (≈ 2.72 µM)	2 (≈ 2.72 µM)	CCCCCCCCOC(=O)CC[C@@H](C)[C@H]1CC[C@H]2[C@@H]3[C@H](OC(=O)CCN)C[C@@H]4C[C@H](OC(=O)CCN)CC[C@]4(C)[C@H]3C[C@H](OC(=O)CCN)[C@]12C [CSA-44]	–	–	–	–
–	–	–	–	CC(C)=CCC/C(C)=C/COC(=O)CC[C@@H](C)[C@H]1CC[C@H]2[C@@H]3[C@H](OC(=O)CCN)C[C@@H]4C[C@H](OC(=O)CCN)CC[C@]4(C)[C@H]3C[C@H](OC(=O)CCN)[C@]12C [CSA-148]	4 (≈ 5.28 µM)	2 (≈ 2.64 µM)	2 (≈ 2.64 µM)	2 (≈ 2.64 µM)
